# From US10092570B2 (Incyte Corporation, priority 2011, dated 2018)
# Biological target: PI3Kδ (p110δ/p85α) (Homo sapiens (Human), UniProt O00329)
# Test: Example A3: PI3Kδ scintillation proximity assay
# Assay type: biochemical
# Settings: scintillation proximity assay, 20 μM ATP, 4 nM PI3Kδ; read-out: PI3Kδ SPA IC50
# Experimental: [γ-^33P]ATP (10 mCi/mL) was purchased from Perkin-Elmer (Waltham, Mass.). […] PI3Kδ (p110δ/p85α) was purchased from Millipore (Bedford, Mass.). ATP, MgCl2, DTT, EDTA, MOPS and CHAPS were purchased from Sigma-Aldrich (St. Louis, Mo.). Wheat Germ Agglutinin (WGA) YSi SPA Scintillation Beads was purchased from GE healthcare life sciences (Piscataway, N.J.).
# The kinase reaction was conducted in polystyrene 384-well matrix white plate from Thermo Fisher Scientific in a final volume of 25 μL. Inhibitors were first diluted serially in DMSO and added to the plate wells before the addition of other reaction components. The final concentration of DMSO in the assay was 0.5%. The PI3K assays were carried out at room temperature in 20 mM MOPS, pH 6.7, 10 mM MgCl2, 5 mM DTT and CHAPS 0.03%. Reactions were initiated by the addition of ATP, the final reaction mixture consisted of 20 μM PIP2, 20 μM ATP, 0.2 μCi [γ-^33P] ATP, 4 nM PI3Kδ. […] 25 mM EDTA, 400 μM ATP. The final concentration of SPA beads was 1.0 mg/mL. After the plate sealing, plates were shaken overnight at room temperature and centrifuged at 1800 rpm for 10 minutes, the radioactivity of the product was determined by scintillation counting on Topcount (Perkin-Elmer). IC50 determination was performed by fitting the curve of percent control activity versus the log of the inhibitor concentration using the GraphPad Prism 3.0 software.
# PI3Kδ (p110δ/p85α), sequence (O00329 whole entry): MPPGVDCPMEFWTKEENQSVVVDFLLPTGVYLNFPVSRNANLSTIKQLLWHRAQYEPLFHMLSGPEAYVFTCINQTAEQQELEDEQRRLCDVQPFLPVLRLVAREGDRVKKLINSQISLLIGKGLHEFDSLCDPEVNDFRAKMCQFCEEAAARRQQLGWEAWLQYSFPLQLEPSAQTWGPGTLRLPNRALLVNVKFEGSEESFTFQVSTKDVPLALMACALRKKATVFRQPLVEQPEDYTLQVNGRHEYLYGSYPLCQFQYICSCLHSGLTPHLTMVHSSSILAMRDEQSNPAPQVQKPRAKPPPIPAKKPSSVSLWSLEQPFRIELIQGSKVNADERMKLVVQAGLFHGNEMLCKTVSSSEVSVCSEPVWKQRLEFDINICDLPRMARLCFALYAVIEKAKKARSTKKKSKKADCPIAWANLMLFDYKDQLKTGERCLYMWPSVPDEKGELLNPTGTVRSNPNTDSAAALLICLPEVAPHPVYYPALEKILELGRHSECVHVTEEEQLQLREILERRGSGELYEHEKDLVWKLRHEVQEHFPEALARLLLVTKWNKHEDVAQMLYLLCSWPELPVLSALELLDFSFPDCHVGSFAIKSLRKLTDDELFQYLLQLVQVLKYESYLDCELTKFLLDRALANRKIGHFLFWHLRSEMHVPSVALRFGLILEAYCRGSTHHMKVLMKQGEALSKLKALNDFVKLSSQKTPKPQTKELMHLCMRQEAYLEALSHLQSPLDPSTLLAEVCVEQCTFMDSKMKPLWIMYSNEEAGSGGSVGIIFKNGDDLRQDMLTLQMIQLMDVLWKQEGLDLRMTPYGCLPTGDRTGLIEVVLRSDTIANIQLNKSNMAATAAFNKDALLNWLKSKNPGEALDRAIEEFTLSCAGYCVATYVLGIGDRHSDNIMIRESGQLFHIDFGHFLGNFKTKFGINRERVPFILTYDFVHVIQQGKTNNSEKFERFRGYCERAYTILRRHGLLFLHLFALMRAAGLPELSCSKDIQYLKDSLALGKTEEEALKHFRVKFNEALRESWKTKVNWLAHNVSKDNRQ
# PI3Kδ (p110δ/p85α), sequence (P27986 whole entry partner): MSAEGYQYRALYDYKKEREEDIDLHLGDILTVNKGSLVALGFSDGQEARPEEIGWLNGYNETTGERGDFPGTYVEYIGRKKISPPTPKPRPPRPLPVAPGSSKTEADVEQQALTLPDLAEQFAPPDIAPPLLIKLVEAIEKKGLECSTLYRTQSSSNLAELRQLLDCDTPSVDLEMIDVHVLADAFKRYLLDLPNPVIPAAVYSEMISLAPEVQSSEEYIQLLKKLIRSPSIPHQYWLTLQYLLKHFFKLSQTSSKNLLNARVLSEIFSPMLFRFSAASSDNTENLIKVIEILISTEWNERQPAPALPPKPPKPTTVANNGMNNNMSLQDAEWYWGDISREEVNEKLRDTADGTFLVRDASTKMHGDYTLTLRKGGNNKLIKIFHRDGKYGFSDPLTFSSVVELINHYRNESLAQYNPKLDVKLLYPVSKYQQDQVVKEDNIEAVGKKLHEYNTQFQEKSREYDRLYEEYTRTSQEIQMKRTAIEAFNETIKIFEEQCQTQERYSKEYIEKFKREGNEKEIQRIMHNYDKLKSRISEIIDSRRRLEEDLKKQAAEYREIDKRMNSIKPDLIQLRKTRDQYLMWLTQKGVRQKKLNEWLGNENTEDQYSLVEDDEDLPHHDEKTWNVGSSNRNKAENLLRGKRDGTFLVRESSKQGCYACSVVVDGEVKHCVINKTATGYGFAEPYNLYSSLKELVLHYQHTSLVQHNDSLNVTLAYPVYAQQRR
row,IC50 [nM],SMILES
1,< 10,"COc1c(C(C)n2nc(C)c3c(N)ncnc32)cc(Cl)c(C#N)c1C1CN(C(N)=O)C1 (single isomer, unassigned) [Example 293, 3-{3-[1-(4-Amino-3-methyl-1H-pyrazolo[3,4-d]pyrimidin-1-yl)ethyl]-5-chloro-6-cyano-2-methoxyphenyl}azetidine-1-carboxamide]"
2,< 10,"CCOc1c(C(C)n2nc(C)c3c(N)ncnc32)cc(Cl)c(C#N)c1-c1ccc(-c2cnn(C)n2)nc1 (racemic) [Example 337, 4-[1-(4-amino-3-methyl-1H-pyrazolo[3,4-d]pyrimidin-1-yl)ethyl]-6-chloro-3-ethoxy-2-[6-(2-methyl-2H-1,2,3-triazol-4-yl)pyridin-3-yl]benzonitrile]"
3,< 10,"COc1c(C(C)n2nc(C)c3c(N)ncnc32)cc(C)c(C#N)c1C1CN(CC(C)(C)O)C1 (stereo not drawn) [Example 328, 4-[-1-(4-amino-3-methyl-1H-pyrazolo[3,4-d]pyrimidin-1-yl)ethyl]-2-[l-(2-hydroxy-2-methylpropyl)azetidin-3-yl]-3-methoxy-6-methylbenzonitrile]"
4,< 10,"COC(=O)N1CC(c2c(C#N)c(Cl)cc(C(C)n3nc(C)c4c(N)ncnc43)c2OC)C1 (single isomer, unassigned) [Example 289, Methyl 3-{3-[1-(4-amino-3-methyl-1H-pyrazolo[3,4-d]pyrimidin-1-yl)ethyl]-5-chloro-6-cyano-2-methoxyphenyl}azetidine-1-carboxylate]"
5,< 10,"COc1c([C@H](C)n2nc(C)c3c(N)ncnc32)cc(Cl)c(C#N)c1C1CN(C[C@@H](C)O)C1 [Example 362, 4-((S)-1-(4-amino-3-methyl-1H-pyrazolo[3,4-d]pyrimidin-1-yl)ethyl)-6-chloro-2-(1-((R)-2-hydroxypropyl)azetidin-3-yl)-3-methoxybenzonitrile]"

# More lines, now with the values behind:
row,SMILES,IC50 [nM]
1,"COc1c(C(C)n2nc(C(F)F)c3c(N)ncnc32)cc(Cl)c(F)c1C1CN(C[C@H](C)O)C1 (stereo partly drawn) [Example 76, (2S)-1-[3-(3-{1-[4-amino-3-(difluoromethyl)-1H-pyrazolo[3,4-d]pyrimidin-1-yl]ethyl}-5-chloro-6-fluoro-2-methoxyphenyl)azetidin-1-yl]propan-2-ol]",< 10
2,"COc1c(C(C)n2ccc(=O)c3c(N)ncnc32)cc(Cl)c(C)c1-c1cccnc1 (racemic) [Example 28, 4-Amino-8-[1-(5-chloro-2-methoxy-4-methyl-3-pyridin-3-ylphenyl)ethyl]pyrido[2,3-d]pyrimidin-5(8H)-one bis(trifluoroacetate)]",< 10
3,"COc1c(C(C)n2nc(C)c3c(N)ncnc32)cc(Cl)c(C#N)c1C1CNC1 (single isomer, unassigned) [Example 261, 4-[1-(4-Amino-3-methyl-1H-pyrazolo[3,4-d]pyrimidin-1-yl)ethyl]-2-azetidin-3-yl-6-chloro-3-methoxybenzonitrile]",< 10
4,"CCOc1c(C(C)n2nc(C)c3c(N)ncnc32)cc(Cl)c(C#N)c1C1CNC1 (single isomer, unassigned) [Example 212, 4-[1-(4-Amino-3-methyl-1H-pyrazolo[3,4-d]pyrimidin-1-yl)ethyl]-2-azetidin-3-yl-6-chloro-3-ethoxybenzonitrile]",< 10
5,"COc1c(C(C)n2nc(C)c3c(N)ncnc32)cc(Cl)c(F)c1C1CN(C[C@@H](C)O)C1 (stereo partly drawn) [Example 69, (2R)-1-(3-{3-[1-(4-Amino-3-methyl-1H-pyrazolo[3,4-d]pyrimidin-1-yl)ethyl]-5-cyloro-6-fluoro-2-methoxyphenyl}azetidin-1-yl)propan-2-ol]",< 10
6,"COc1c(C(C)n2nc(C)c3c(N)ncnc32)cc(Cl)c(C)c1C1CN(C(C)C#N)C1 (centres unmarked) [Example 106, 2-(3-{3-[1-(4-Amino-3-methyl-1H-pyrazolo[3,4-d]pyrimidin-1-yl)ethyl]-5-chloro-2-methoxy-6-methylphenyl}azetidin-1-yl)propanenitrile]",< 10
